Results as given in paper PMC10604990, “Characterization and Investigation of Novel Benzodioxol Derivatives as Antidiabetic Agents: An In Vitro and In Vivo Study in an Animal Model” (Biomolecules, 2023).
Read-outs that look alike come from different tables or passages of the source.

What was measured:
HeLa = experiment: MTS cytotoxicity assay, HeLa; type: cell-based; settings: 72 h
Procedure: (§1) Cultivation of the cancer cell lines MCF-7, Hep3B, HepG2, and Caco-2 HeLa was conducted in RPMI 1640 medium, whereas LX-2, B16-F1, and HEK-293T cells were grown in DMEM medium. These cells were incubated at 37 °C in a 5% CO2 atmosphere within a humid setting. In a 96-well plate, 1000 cells were seeded in each well. Following a 24 h incubation, they were exposed to various concentrations of Ia-IIe compounds (300, 100, 50, and 10 µM) for 72 h. The Cell-Tilter 96® (Promega Corporation, Madison, WI, USA) Aqueous One Solution Cell Proliferation (MTS) bioassay was utilized to determine the cell viability post-culture. For this assay, 90 µL of medium and 10 µL of MTS solution were added to every well, and the plates were then placed in a 37 °C environment for 2 to 4 h. The absorbance was subsequently assessed at a wavelength of 490 nm using a UV–Vis spectrophotometer.

LX-2 = experiment: MTS cytotoxicity assay, LX-2; type: cell-based
Procedure: as §1

HepG2 = experiment: MTS cytotoxicity assay, HepG2; type: cell-based
Procedure: as §1

Hek293t normal cell line = experiment: MTS cytotoxicity assay, Hek293t normal cell line; type: cell-based; settings: 72 h
Procedure: as §1

Hep3B = experiment: MTS cytotoxicity assay, Hep3B; type: cell-based; settings: 72 h
Procedure: as §1

Caco-2 = experiment: MTS cytotoxicity assay, Caco-2; type: cell-based
Procedure: as §1

MCF-7 = experiment: MTS cytotoxicity assay, MCF-7; type: cell-based
Procedure: as §1

[1] = tested on: streptozotocin-induced diabetic mice; experiment: In vivo hypoglycemic effect in STZ-induced diabetic mice; settings: five daily i.p. doses of 10 mg/kg, fasting, 252.2 mg/dL before treatment, untreated diabetes group 274.25 mg/dL
From the text: The mice-related investigations were meticulously conducted, adhering strictly to the protocols outlined by the Association for Assessment and Accreditation of Laboratory Animal Care International. The ethical underpinning of these experiments was formally acknowledged, having secured the approval of the Institutional Review Board of the Animal House and Use Committee at An-Najah National University (approval number: Med. June. 2023/9).
The study’s protagonists consisted of 18 healthy adult mice gracing the stage with a weight symphony ranging from 17 to 27 g. These cherished participants were thoughtfully accommodated in groups of three within the hospitable confines of the animal facility. In an overture of preparation, the mice were granted 7 days to acquaint themselves with the ambiance of the animal facility, enveloped within the embrace of controlled temperature conditions, a harmonious 25 ± 2 °C.
In the experiment, the mice were subjected to diabetes induction via an intraperitoneal (i.p.) injection of streptozotocin (STZ). […] In order to ascertain the induction of diabetes, the fasting blood glucose levels of the mice were assessed on the fourth day after the injection of STZ. […]
In this research, the fasting blood glucose levels for all groups were measured on the first day before the induction of diabetes using a streptozotocin (STZ) injection. […]

α-amylase [2] = biological target: T1, α-amylase (Homo sapiens, UniProt P04746); experiment: α-amylase inhibition, DNSA method; type: biochemical
T1 sequence (P04746 16-511): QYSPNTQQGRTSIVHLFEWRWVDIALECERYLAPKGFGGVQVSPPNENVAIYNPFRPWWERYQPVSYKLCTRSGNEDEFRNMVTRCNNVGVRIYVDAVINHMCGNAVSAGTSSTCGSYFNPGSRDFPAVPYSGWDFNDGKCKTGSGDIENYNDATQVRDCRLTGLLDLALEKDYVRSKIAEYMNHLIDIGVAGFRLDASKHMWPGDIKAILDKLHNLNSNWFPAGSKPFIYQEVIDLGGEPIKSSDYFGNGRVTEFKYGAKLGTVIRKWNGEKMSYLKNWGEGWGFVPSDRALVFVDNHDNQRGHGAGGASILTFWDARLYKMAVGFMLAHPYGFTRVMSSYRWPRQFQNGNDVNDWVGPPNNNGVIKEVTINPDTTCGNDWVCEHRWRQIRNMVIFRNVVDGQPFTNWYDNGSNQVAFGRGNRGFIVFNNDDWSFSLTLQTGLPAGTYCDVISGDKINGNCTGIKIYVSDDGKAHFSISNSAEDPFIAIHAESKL
Procedure: The experiment was conducted using the 3,5-dinitrosalicylic acid (DNSA) approach. Buffer solutions were prepared, containing 20 mm of both sodium phosphate monobasic and sodium phosphate dibasic, and were augmented with 6.7 mm sodium chloride (NaH2PO4 and Na2HPO4, each at 6.7 mm NaCl, pH 6.9). A beaker was filled partially with NaH2PO4 and NaCl solution and stirred magnetically, and the pH was meticulously calibrated using a specialized electrode. The desired pH of 6.9 was achieved by adding more NaH2PO4 and NaCl to the solution.
The stock solution consisted of synthesized molecules at a 1 mg/mL concentration, harmoniously blended with no less than 10% DMSO in a 1:100 dilution. This mixture was then united with a buffer composed of Na2HPO4/NaH2PO4 (0.02 M) and NaCl (0.006 M), maintaining a pH of 6.9. From this, working solutions were created at concentrations ranging from 0.1 to 100 µM. These comprised 0.01, 0.1, 0.5, 1, and 5 mL of the synthesized molecules diluted with the pH-adjusted buffer and brought to a total volume of 10 mL using VF (10 mL).
This transformative amalgam journeyed to attain a final volume of 100 mL, seamlessly infused with the phosphate buffer discussed earlier, harmonizing within a 100 mL volumetric flask (VF). Meanwhile, the starch solution, poised at a concentration of 1% (w/v), saw the suspension of 1000 mg of starch in 100 mL of distilled water, orchestrated with finesse within a 100 mL VF. This aqueous symphony unfolded in a temperate embrace of 37 °C within a water bath, occasionally stirring to deter any starch precipitation inklings.
The overture of this reaction was orchestrated by DNSA—a reactive virtuoso that commences its dance upon encountering reducing sugars, conjuring forth 3-amino-5-nitro salicylic acid, a spectral charmer at the wavelength of around 540 nm. The creation of DNSA itself, an artful process, saw the dissolution of 12 g of sodium potassium tartrate tetrahydrate within 8.0 mL of 2 M NaOH, further entwined with 20 mL of the enchanted 96 mm 3.5-dinitrosalicylic acid solution. Thus, the stage was set for this chemical ballet, where reactions waltzed, and absorbance painted a canvas of molecular magic. […]
The climax of this reaction narrative was unveiled as 200 μL of DNSA entered the stage, promptly followed by a vigorous boiling performance for 10 min, orchestrated at the harmonious temperature range of 85 to 90 °C. […] In a final crescendo, the resounding absorbance at 540 nm resounded as it was masterfully measured utilizing the UV-Visible spectrophotometer.
In order to produce the initial state, the blank canvas was used to substitute the synthesized chemicals, adding 200 μL of buffer. […] This captivating performance culminated with quantifying enzyme inhibitory activity expressed as a percentage of inhibition. […]

α-amylase [3] = biological target: T1, α-amylase; settings: cited from earlier work
cancer cell lines = experiment: MTS cytotoxicity assay, range over cell lines; type: cell-based
Procedure: as §1

α-amylase [4] = biological target: T1, α-amylase; settings: control compound IIe; cited from earlier work

Compound	IC50 (HeLa; Homo sapiens, HeLa)	IC50 (LX-2; Homo sapiens, LX-2, 72 h)	IC50 (HepG2; Homo sapiens, HepG2, 72 h)	IC50 (Hek293t normal cell line; Homo sapiens, HEK-293T)	IC50 (Hep3B; Homo sapiens, Hep3B)	IC50 (Caco-2; Homo sapiens, Caco-2, 72 h)	IC50 (MCF-7; Homo sapiens, MCF7, 72 h)	further results
O=C(Cc1ccc2c(c1)OCO2)Nc1ccccc1 [Ib, 2-(benzo[d][1,3]dioxol-5-yl)-N-phenylacetamide]	> 300 µM	280.6 ± 2.33 µM	> 300 µM	269.2 ± 1.73 µM	> 300 µM	> 300 µM	> 300 µM	–
O=C(Nc1cccc(C(F)(F)F)c1)c1ccc2c(c1)OCO2 [IIc, N-(3-(trifluoromethyl)phenyl)benzo[d][1,3]dioxole-5-carboxamide]	> 300 µM	> 300 µM	> 300 µM	> 150 µM	> 300 µM	> 300 µM	> 300 µM	blood glucose level after treatment [1]: 173.8 mg/dL; IC50 (Hek293t normal cell line): 156 ± 2.98 µM
COc1cc(NC(=O)c2ccc3c(c2)OCO3)cc(OC)c1OC [IIb, N-(3,4,5-trimethoxyphenyl)benzo[d][1,3]dioxole-5-carboxamide]	> 300 µM	96.6 ± 2.7 µM	> 300 µM	> 300 µM	> 300 µM	> 300 µM	> 300 µM	–
COc1cccc2c1C(=O)c1c(O)c3c(c(O)c1C2=O)C[C@@](O)(C(=O)CO)C[C@@H]3O[C@H]1C[C@H](N)[C@H](O)[C@H](C)O1 [DOX, reference compound]	–	–	–	–	–	–	–	IC50 (HeLa): < 0.01 µM; IC50 (LX-2; 72 h): 0.21 ± 0.12 µM; IC50 (HepG2; 72 h): < 0.01 µM; IC50 (Hek293t normal cell line): 0.038 ± 0.02 µM; IC50 (Hep3B): 0.025 ± 0.005 µM; IC50 (Caco-2; 72 h): 0.024 ± 0.001 µM; IC50 (MCF-7; 72 h): 0.053 ± 0.009 µM
O=c1[nH]cc(F)c(=O)[nH]1 [Compound 5-FU, reference compound]	–	–	–	–	–	–	–	IC50 (HeLa): 7.79 ± 1.6 µM; IC50 (LX-2; 72 h): 0.178 ± 0.11 µM; IC50 (HepG2; 72 h): 4.07 ± 1.42 µM; IC50 (Hep3B): 5.11 ± 1.67 µM; IC50 (Caco-2; 72 h): 4.75 ± 1.71 µM; IC50 (MCF-7; 72 h): 6.51 ± 1.82 µM
COc1cc(NC(=O)Cc2ccc3c(c2)OCO3)c(OC)cc1Cl [Ia, 2-(benzo[d][1,3]dioxol-5-yl)-N-(4-chloro-2,5-dimethoxyphenyl)acetamide]	43.6 ± 2.97 µM	70.6 ± 2.45 µM	169 ± 2.16 µM	> 300 µM	197 ± 1.99 µM	> 300 µM	124 ± 2.73 µM	IC50 (α-amylase [2]): 16.8 ± 1.55 µM
O=C(Nc1ccccc1)c1ccc2c(c1)OCO2 [IIa, N-phenylbenzo[d][1,3]dioxole-5-carboxamide]	> 300 µM	> 300 µM	> 300 µM	> 150 µM	> 300 µM	> 300 µM	> 300 µM	IC50 (α-amylase [2]): 0.85 ± 0.18 µM; IC50 (Hek293t normal cell line): > 300 µM
COC(=O)Cc1cc2c(cc1C(=O)c1ccccc1Br)OCO2 [St.2]	–	–	–	–	–	–	–	IC50 (α-amylase [3]; earlier work of the same team): 6.81 µM
COc1ccc(OC)c(NC(=O)Cc2ccc3c(c2)OCO3)c1 [Ic, 2-(benzo[d][1,3]dioxol-5-yl)-N-(2,5-dimethoxyphenyl)acetamide]	> 300 µM	209 ± 2.2 µM	> 300 µM	207 ± 2.59 µM	> 300 µM	> 300 µM	> 300 µM	IC50 (α-amylase [2]): 16.4 ± 1.58 µM
COc1cc(OC)cc(C(=O)c2ccc3c(c2)OCO3)c1 [St.3]	–	–	–	–	–	–	–	IC50 (α-amylase [3]; earlier work of the same team): 15 µM
COc1ccccc1Oc1ccc(NC(=O)c2ccc3c(c2)OCO3)cc1 [IId, N-(4-(2-methoxyphenoxy)phenyl)benzo[d][1,3]dioxole-5-carboxamide]	26.6 ± 2.41 µM	31.4 ± 2.71 µM	55.3 ± 2.72 µM	> 300 µM	65.2 ± 2.53 µM	> 300 µM	55.8 ± 2.51 µM	IC50 (α-amylase [2]): 5.76 ± 1.92 µM; IC50 (cancer cell lines; Homo sapiens, Caco-2, four cancer cell lines / all cell lines except Caco-2): 26 to 65 µM; IC50 (cancer cell lines; four cancer cell lines / all cell lines except Caco-2): 26.6 to 65.2 µM
N#C/C=C1/C=C(c2ccc(Br)cc2)N=C2Sc3ccccc3N21 [St.1]	–	–	–	–	–	–	–	IC50 (α-amylase [3]): 15.3 µM
Oc1cc(O)cc(Oc2c(O)cc(Oc3c(O)cc(O)cc3O)cc2O)c1 [DDBT, 2-(4-(3,5-dihydroxyphenoxy)-3,5-dihydroxyphenoxy) benzene-1,3,5-triol]	–	–	–	–	–	–	–	IC50 (α-amylase [3]): 8.5 µM
COc1cc(NC(=O)c2ccc3c(c2)OCO3)cc(OC)c1 [IIe, N-(3,5-dimethoxyphenyl)benzo[d][1,3]dioxole-5-carboxamide]	> 300 µM	183 ± 2 µM	> 300 µM	> 300 µM	> 300 µM	> 300 µM	> 300 µM	IC50 (α-amylase [4]): 15 ± 3.52 µM
